Experimental data published in patent US4416826A, “Peresters and use thereof” (priority 1980, dated 1983).
Entries after “also recorded” stand apart in the source; their conditions may differ.

Assays:
[1] = Photodecomposition kinetics and quantum yields at 366 nm (benzophenone-benzhydrol actinometry); assay type: physicochemical
Procedure: Kinetic studies are carried out in degassed, sealed tubes by irradiating them with 366 nm light obtained from a Hanovia medium-pressure mercury lamp by combining the Corning Filters 0-52 and 7-60. The decompositions of the […] followed by the carbonyl IR absorption adjacent to the peroxide group (O=COO--) (1770 cm^-1). Benzophenone-benzhydrol redox actinometry are used throughout the study. In particular, a solution of […] (2 mL) in the appropriate solvent is placed in Pyrex tubes (12-mm diameter), degassed, and sealed under vacuum. Three cycles of freeze-thaw removes dissolved oxygen. The tubes are placed in a merry-go-round around a water-cooled light source, removed at different predetermined intervals, and kept frozen in liquid nitrogen in the dark until analysis is done. The estimation of […] done by quantitative IR, monitoring the carbonyl peak at 1770 cm^-1. […] Absorbance is measured with a 0.1 mm NaCl cell against solvent reference. With every run, two tubes containing actinometric solutions (benzophenone (0.1 M) and benzhydrol (0.05 M) in benzene are irradiated.

[2] = Thermal stability / thermal decomposition of peresters in the dark; assay type: physicochemical
[3] = Polymerization of methyl methacrylate; details: initiator 5 × 10^-2 M, [MMA] = 3.1 M, 25° C., benzene
Procedure: Commercial methyl methacrylate monomer is washed three times with 2% NaOH solution to remove stabilizer. It is then washed with distilled water three times, dried with molecular sieves, and distilled under vacuum before use. Polymerization solutions are prepared in cylindrical tubes which are degassed and sealed. The amount of polymer formed is determined by precipitating the polymer with an excess of methanol, washing with methanol, and filtering through fine sintered crucibles (previously weighed) followed by drying in a vacuum oven. The irradiation condition is the same as that in the decomposition rate example hereinabove.

[4] = Polymerization of unsaturated polyester films under UV lamp (wipe resistance, pendulum hardness); details: for Passes necessary to achieve resistance to wiping: 0.2 parts in 10 parts resin, 100μ film, 17 m/min
Procedure: This mixture is stirred until a solution is obtained, which is then drawn out on glass plates with a film drawer (100μ). […] The samples are passed, on a conveyer belt, under the UV-lamp at a rate of 17 m/min. (20 volts).
In addition, the hardness of the film is determined using a pendulum apparatus according to Konig.

[5] = literature discussion; cited from earlier work
[6] = Stern-Volmer triplet quenching with naphthalene; assay type: physicochemical; details: C6 H6
From the text: All the peresters give linear Stern-Volmer plots when naphthalene is used as triplet quencher.

[7] = Photolysis of peresters and analysis of photoproducts; assay type: physicochemical; details: methanol compared with cyclohexane or with other peresters
Procedure: The amount of perester used is in the range of 300-500 mg. The solutions are placed in Pyrex tubes, flushed with nitrogen for 10 min., and sealed with a rubber cap.
After the irradiation, the yield of CO2 is measured by applying N2 pressure and trapping the CO2 with a Ba(OH)2 solution. The photolyzed solutions are evaporated (in the case of perester Ia treatment with excess diazomethane gives the best separation procedure) and again evaporated. Chromatography over 2 mm silica gel plates (E. Merck) with dichloromethane as the developing solvent separates the products. Extraction of the silica gel is done with ether. The identity of each sample is confirmed by GLC or high-pressure LC by comparison with authentic samples or by melting points of the solids.
This is shown by comparison with an authentic sample and combination of spectroscopic techniques. […] The same product is formed when 4-benzoylbenzoic acid is irradiated for 2 hours in CH3 OH in 26% yield. The structure of this secondary photoproduct is shown by independent synthesis (reduction of methyl 4-benzoylbenzoate by NaBH4). Among other secondary photoproducts found in small amounts is a mixture of pinacols. These are confirmed by synthesis of a similar pinacol mixture upon irradiation of methyl 4-benzoylbenzoate in isopropyl alcohol. […]

Triplet energy = assay type: physicochemical
[8] = End group analysis of polystyrene by IR
Procedure: The polystyrene obtained from each of the above polymerizations is purified by repeated (four times) precipitation from benzene solution with methanol. Before each precipitation, the benzene solution is centrifuged to remove any insoluble material. The finely powdered polymer is filtered and dried under vacuum for two days. Known amounts of polymer are dissolved in benzene and the IR is taken (2000-1500 cm^-1) against benzene in 0.1-mm NaCl cells. The peaks at 1730 and 1670 cm^-1 for the carbonyl groups, caused by ester and benzophenones, respectively, are measured. […] The extinction coefficient of the carbonyl group at 1730 cm^-1 is compared with that of authenticated methyl benzoylbenzoate, which is used as a model to measure the concentration of the ester end groups in the polymer. From the concentration of the ester and the extinction resulting from the carbonyl group in the benzophenone, the absorption caused by the benzophenone that is present as the ester can be calculated. The value is subtracted from the absorption obtained at 1670 cm^- 1 for the polymer. From the resulting absorption, the concentration of benzophenone alone is estimated from the known extinction of benzophenone at that wavelength.

[9] = Photopolymerization of styrene, radical efficiency; details: chloroform, [I] 5.00 × 10^-3 M
Procedure: (§1) Commercial styrene is washed three times with ice cold 2% NaOH solution followed by washing (four times) with distilled water. The styrene is dried over anhydrous CaCl2 and distilled under vacuum before use. The middle fraction of the distillate is used for polymerization. Solvents are purified by conventional means and distilled under N2 atmosphere.
(§2) The irradiations are carried out in degassed (three cycles of freeze-thaw under high vacuum) sealed 15-mm Pyrex tubes. The tubes are placed in a merry-go-round with a filtered UV source of 366 nm at the center and the yield of polymer is measured (below 10% conversion) gravimetrically. In all of the cases, tubes of the same size and same volume of solution are used. Number-average molecular weights of the purified polymers are determined by viscometry in a benzene solution. After the polymerization, an aliquot of 0.5 ml from each reaction tube is placed in 2-ml volumetric flasks. The solvent and excess monomer are evaporated under high vacuum for several hours. The remaining flask contents are dissolved in 0.5 ml of benzene or chloroform and the polymer is precipitated by adding 0.5 ml of n-hexane. The solution then is centrifuged and the IR of the centrifugate is measured to determine undecomposed perester. All of the above procedures are carried out as far as possible in the dark. The light intensity is measured by benzophenone-benzhydrol actinometry and observed to be Io =6.56×10^17 quanta/min on the average. The temperature of the tubes is maintained at 30° C.
The efficiency of the radicals to initiate polymerization, f, in the absence of any appreciable amount of chain transfer, can be defined as [formula] assuming bimolecular termination by the combination of two growing chains only [formula] whereas kd =rate of decomposition of perester in mol/liter sec. in the absence of monomer (a function of light intensity).

[10] = Relative quantum yield of initiator decomposition in presence of monomer (IR at 1770 cm^-1); assay type: physicochemical; details: for relative quantum yield φrel of decomposition: chloroform, initiator 2 × 10^-2 M
Procedure: as §1, §2
The decomposition of the initiator employed is followed by IR at 1770 cm^-1 (caused by the carbonyl adjacent to the peroxy group) against an appropriate solvent blank. The initiators employed are .rho.-benzoylperoxybenzoic acid tert-butylester (Ia) and prior art benzophenone peroxide. In addition, the above procedure is repeated except that methyl methacrylate is employed in place of styrene. Table IX below illustrates the relative quantum yield for the decomposition of the initiators in the recited amounts of monomers, assuming that the quantum yield for the decomposition of the perester and peroxide in the absence of any monomer is one.

Solubility in benzene = assay type: physicochemical
[11] = 110° C., chlorobenzene, dark, initial concn Ia 5.01, Ib 5.15, Ic 5.19 × 10^-2 M
[12] = Exp. 7: chloroform, [I] 5.0 × 10^-3 M, styrene 3.61 M
[13] = Exp. 8: chloroform, [I] 4.52 × 10^-3 M, styrene 4.33 M
[14] = Exp. 9: chloroform, [I] 4.94 × 10^-3 M, styrene 5.88 M

For `O=C(OOC(=O)c1ccccc1)c1ccccc1` [Bz2 O2, benzoyl peroxide, reference compound], the “photodecomposition behaviour, in words” value ([1]; 366 nm radiation, room temperature) was “photostable”, the “quantum yield of sensitized decomposition (φ of dec)” value ([1]; C6 H6, 4.67 × 10^-2 M, benzophenone 5.89 × 10^-2 M) was 0.32 and the “sensitized photodecomposition rate constant kd × 10^4” value ([1]; C6 H6, 25° C., 4.67 × 10^-2 M, benzophenone 5.89 × 10^-2 M, given as kd × 10^4) was 0.64 s^-1. The “quantum yield of sensitized decomposition (φ of dec)” value ([1]; CCl4, 3.50 × 10^-2 M, benzophenone 3.75 × 10^-2 M) was 0.17, the “thermal decomposition, in words” value ([2]; 80° C. in benzene) was “a decomposition rate comparable to the literature value” and the “Rate of Polymerization (Rp) of MMA, Rp × 10^5” value ([3]; benzophenone 5.5 × 10^-2 M) was 2.58 mL^-1 s^-1.
In the case of `COc1ccc(C(=O)c2ccc(C(=O)OOC(C)(C)C)cc2)cc1`, the “Passes necessary to achieve resistance to wiping” value (shortened to “Passes necessary”) [4] is reported as 14, the “Pendulum hardness according to Konig, H” value ([4]; after 14 passes) is reported as 23 and the “Pendulum hardness according to Konig, H” value ([4]; after 16 passes) is reported as 26.
In the case of `Cc1ccc(C(=O)c2ccc(C(=O)OOC(C)(C)C)cc2)cc1`, the “Passes necessary” value [4] is reported as 13, the “Pendulum hardness according to Konig, H” value ([4]; after 13 passes) is reported as 23 and the “Pendulum hardness according to Konig, H” value ([4]; after 15 passes) is reported as 51.
In the case of `C=Cc1ccccc1` [Styrene], the triplet energy [5] is given as 62 kcal/mol.
With `CC(C)(C)OOC(=O)c1ccc(C(=O)c2ccccc2)cc1` [drawing 15] the “Passes necessary” value [4] was 12, the “Pendulum hardness according to Konig, H” value ([4]; after 12 passes) was 24 and the “Pendulum hardness according to Konig, H” value ([4]; after 14 passes) was 38.
For `Cc1cc(C)c(C(=O)c2ccc(C(=O)OOC(C)(C)C)cc2)c(C)c1` [Ib, Tert-butyl-4-(2',4',6'-trimethylbenzoyl)perbenzoate], the “quenching constant kq τ” value [6] was 15, the “rate of photodecomposition, qualitative” value [7] was “the effect of methanol is to slow the rate of decomposition; also recorded: apparently slower rate of decomposition in methanol than either that of Ia or Ic” and the “triplet energy ET” value (Triplet energy) was 67.4 kcal/mol. The “apparent first-order photodecomposition rate constant kd × 10^4” value ([1]; C6 H6, 25° C., 366 nm, I = 6.56 × 10^17 quanta/min, 5.03-6.06 × 10^-2 M, given as kd × 10^4) was 1.34 s^-1, the “quantum yield of decomposition (φ of dec)” value ([1]; C6 H6, 366 nm, perester 5.03-6.06 × 10^-2 M) was 0.80 and the “quantum yield of decomposition (φ of dec)” value ([1]; methanol, TBP 5.08 × 10^-2 M, Ia 5.38, Ib 6.15 × 10^-2 M) was 0.62. For the same molecule, the “quantum yield of decomposition (φ of dec)” value ([1]; methanol, no TBP, Ia 5.38, Ib 6.15, Ic 5.10 × 10^-2 M) was 1.30, the “thermal 1st order dec rate × 10^5” value [2, 11] was 1.80 M × 10^5 s^-1 and the “thermal half-life t1/2” value [2, 11] was 10.7 h. For the same molecule, the “Rate of Polymerization (Rp) of MMA, Rp × 10^5” value [3] was 8.31 mL^-1 s^-1.
For `O=C(OOC(=O)c1ccc(C(=O)c2ccccc2)cc1)c1ccc(C(=O)c2ccccc2)cc1` [Peroxide, reference compound], the “total number of benzophenones as end groups per chain, in words” value [8] was “almost two”, the “end groups per chain, Benzophenone” value [8, 12] was 0.54 and the “end groups per chain, Benzophenone as ester” value [8, 12] was 1.29. The “end groups per chain, Total” value [8, 12] was 1.83, the “end groups per chain, Benzophenone” value [8, 13] was 0.62 and the “end groups per chain, Benzophenone as ester” value [8, 13] was 1.30. The “end groups per chain, Total” value [8, 13] was 1.92, the “end groups per chain, Benzophenone” value [8, 14] was 0.72 and the “end groups per chain, Benzophenone as ester” value [8, 14] was 1.36. The “end groups per chain, Total” value [8, 14] was 2.08, the “Average degree of polymerization” value ([9]; [M] 3.61 M) was 159.6 and the Radical efficiency f ([9]; [M] 3.61 M) was 0.33. The “Rp × 10^5” value ([9]; [M] 3.61 M) was 1.07 mole/liter sec, the φrel ([9]; [M] 3.61 M) was 0.08 and the “Average degree of polymerization” value ([9]; [M] 4.33 M) was 155.8. The Radical efficiency f ([9]; [M] 4.33 M) was 0.33, the “Rp × 10^5” value ([9]; [M] 4.33 M) was 1.04 mole/liter sec and the φrel ([9]; [M] 4.33 M) was 0.08. The “Average degree of polymerization” value ([9]; [M] 5.88 M) was 372.9, the Radical efficiency f ([9]; [M] 5.88 M) was 0.26 and the “Rp × 10^5” value ([9]; [M] 5.88 M) was 1.72 mole/liter sec. For the same molecule, the φrel ([9]; [M] 5.88 M) was 0.08, the “effect of styrene on quantum yield of decomposition, in words” value [10] was “the quenching effect being greater with the peroxide than the perester” and the “relative quantum yield φrel of decomposition” value (“relative quantum yield φrel” for short) ([10]; styrene 2.18 M) was 0.05. For the same molecule, the “relative quantum yield φrel” value ([10]; styrene 2.23 M) was 0.06, the “relative quantum yield φrel” value ([10]; styrene 4.26 M) was 0.08 and the solubility in benzene (Solubility in benzene) was “insoluble in benzene”.
For `O=C(c1ccccc1)c1ccccc1` [Benzophenone, reference compound], the “Passes necessary” value [4] is listed as greater than 20, the “Pendulum hardness according to Konig, H” value ([4]; number of passes for hardness not given) is listed as “wet” and the triplet energy [5] is listed as roughly 69 kcal/mol.
